Laboratory results published in patent publication US11505543B2, “4-oxo-3,4-dihydroquinazoline compounds as inhibitors of human immunodeficiency virus replication” (VIIV HEALTHCARE UK (NO.5) LIMITED, priority 2018, dated 2022).

Assays:
[1] = system: recombinant NL4-3 virus (nef section replaced with Renilla luciferase gene) in MT-2 cells; experiment: HIV cell culture assay (antiviral activity, luciferase readout); format: cell-based; settings: Renilla, NL43, MT-2 cells infected for 4-5 days with recombinant NL4-3 Renilla luciferase virus, serial dilutions of compound
How it was run: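 Test compound in serial dilution was present while MT-2 cells were infected for 4–5 days with recombinant NL4-3 virus made in 293T cells. Antiviral activity was quantified as Renilla luciferase activity, read with a live-cell substrate. EC50 came from the median-effect equation.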

[2] = Compound cytotoxicity, XTT-based colorimetric assay; format: cell-based; settings: human, uninfected MT2 cells, day 4, XTT
How it was run: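 Run under the antiviral-assay protocol but without virus. Viability was read on day 4 and CC50 values were derived from the readout.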

| Structure (SMILES) | EC50 [1] [nM] | CC50 at 4 day [2] [nM] |
| --- | --- | --- |
| Cc1cccc(C)c1-c1ccc2c(=O)n(-c3ccc(S(=O)(=O)N4CCOCC4)cc3)c([C@H](Cc3cc(F)cc(F)c3)NC(=O)Cn3ccc(C4CC4)n3)nc2c1 [Example 49, (S)-2-(3-cyclopropyl-1H-pyrazol-1-yl)-N-(2-(3,5-difluorophenyl)-1-(7-(2,6-dimethylphenyl)-3-(4-(morpholinosulfonyl)phenyl)-4-oxo-3,4-dihydroquinazolin-2-yl)ethyl)acetamide] | 30 | > 1000 |
| Cc1cc(Cl)ccc1-c1ccc2c(=O)n(-c3ccc(S(=O)(=O)N4CCOCC4)cc3)c([C@H](Cc3cc(F)cc(F)c3)NC(=O)Cn3ccc(C4CC4)n3)nc2c1 [Example 50, (S)-N-(1-(7-(4-chloro-2-methylphenyl)-3-(4-(morpholinosulfonyl)phenyl)-4-oxo-3,4-dihydroquinazolin-2-yl)-2-(3,5-difluorophenyl)ethyl)-2-(3-cyclopropyl-1H-pyrazol-1-yl)acetamide] | 70 | > 1000 |
| COc1cccc(-c2ccc3c(=O)n(-c4ccc(S(=O)(=O)N5CCOCC5)cc4)c([C@H](Cc4cc(F)cc(F)c4)NC(=O)Cn4ccc(C5CC5)n4)nc3c2)n1 [Example 55, (S)-2-(3-cyclopropyl-1H-pyrazol-1-yl)-N-(2-(3,5-difluorophenyl)-1-(7-(6-methoxypyridin-2-yl)-3-(4-(morpholinosulfonyl)phenyl)-4-oxo-3,4-dihydroquinazolin-2-yl)ethyl)acetamide] | 8.7 | > 1000 |
| O=C(Cn1nc(C(F)F)c2c1C(F)(F)[C@@H]1C[C@H]21)N[C@@H](Cc1cc(F)cc(F)c1)c1nc2cc(-c3ccncc3)ccc2c(=O)n1-c1ccc(S(=O)(=O)N2CCOCC2)cc1 [Example 69, 2-((3bS,4aR)-3-(difluoromethyl)-5,5-difluoro-3b,4,4a,5-tetrahydro-1H-cyclopropa[3,4]cyclopenta[1,2-c]pyrazol-1-yl)-N-((S)-2-(3,5-difluorophenyl)-1-(3-(4-(morpholinosulfonyl)phenyl)-4-oxo-7-(pyridin-4-yl)-3,4-dihydroquinazolin-2-yl)ethyl)acetamide] | 1 | > 1000 |
| O=C(Cn1ccc(C2CC2)n1)N[C@@H](Cc1cc(F)cc(F)c1)c1nc2cc(-c3cccc(F)c3F)ccc2c(=O)n1-c1ccc(S(=O)(=O)N2CCOCC2)cc1 [Example 74, (S)-2-(3-cyclopropyl-1H-pyrazol-1-yl)-N-(2-(3,5-difluorophenyl)-1-(7-(2,3-difluorophenyl)-3-(4-(morpholinosulfonyl)phenyl)-4-oxo-3,4-dihydroquinazolin-2-yl)ethyl)acetamide] | 16 | > 1000 |
| Cc1cccc(C)c1-c1ccc2c(=O)n(-c3ccc(S(=O)(=O)N4CCOCC4)cc3)c([C@H](Cc3cc(F)cc(F)c3)NC(=O)Cn3nc(C(F)F)c4c3C(F)(F)[C@@H]3C[C@H]43)nc2c1 [Example 77, 2-((3bS,4aR)-3-(difluoromethyl)-5,5-difluoro-3b,4,4a,5-tetrahydro-1H-cyclopropa[3,4]cyclopenta[1,2-c]pyrazol-1-yl)-N-((S)-2-(3,5-difluorophenyl)-1-(7-(2,6-dimethylphenyl)-3-(4-(morpholinosulfonyl)phenyl)-4-oxo-3,4-dihydroquinazolin-2-yl)ethyl)acetamide] | 4.2 | > 1000 |
| O=C(Cn1nc(C(F)F)c2c1C(F)(F)[C@@H]1C[C@H]21)N[C@@H](Cc1cc(F)cc(F)c1)c1nc2cc(-c3ccc(Cl)cc3Cl)ccc2c(=O)n1-c1ccc(S(=O)(=O)N2CCOCC2)cc1 [Example 80, N-((S)-1-(7-(2,4-dichlorophenyl)-3-(4-(morpholinosulfonyl)phenyl)-4-oxo-3,4-dihydroquinazolin-2-yl)-2-(3,5-difluorophenyl)ethyl)-2-((3bS,4aR)-3-(difluoromethyl)-5,5-difluoro-3b,4,4a,5-tetrahydro-1H-cyclopropa[3,4]cyclopenta[1,2-c]pyrazol-1-yl)acetamide] | 8 | > 1000 |
| O=C(Cn1ccc(C2CC2)n1)N[C@@H](Cc1cc(F)cc(F)c1)c1nc2cc(-c3ccc(Cl)cc3Cl)ccc2c(=O)n1-c1ccc(S(=O)(=O)N2CCOCC2)cc1 [Example 81, (S)-2-(3-cyclopropyl-1H-pyrazol-1-yl)-N-(1-(7-(2,4-dichlorophenyl)-3-(4-(morpholinosulfonyl)phenyl)-4-oxo-3,4-dihydroquinazolin-2-yl)-2-(3,5-difluorophenyl)ethyl)acetamide] | 56 | > 1000 |
| COc1cccc(OC)c1-c1ccc2c(=O)n(-c3ccc(S(=O)(=O)N4CCOCC4)cc3)c([C@H](Cc3cc(F)cc(F)c3)NC(=O)Cn3nc(C(F)F)c4c3C(F)(F)[C@@H]3C[C@H]43)nc2c1 [Example 83, 2-((3bS,4aR)-3-(difluoromethyl)-5,5-difluoro-3b,4,4a,5-tetrahydro-1H-cyclopropa[3,4]cyclopenta[1,2-c]pyrazol-1-yl)-N-((S)-2-(3,5-difluorophenyl)-1-(7-(2,6-dimethoxyphenyl)-3-(4-(morpholinosulfonyl)phenyl)-4-oxo-3,4-dihydroquinazolin-2-yl)ethyl)acetamide] | 5 | > 1000 |
| Cc1cc(F)ccc1-c1ccc2c(=O)n(-c3ccc(S(=O)(=O)N4CCOCC4)cc3)c([C@H](Cc3cc(F)cc(F)c3)NC(=O)Cn3ccc(C4CC4)n3)nc2c1 [Example 102, (S)-2-(3-cyclopropyl-1H-pyrazol-1-yl)-N-(2-(3,5-difluorophenyl)-1-(7-(4-fluoro-2-methylphenyl)-3-(4-(morpholinosulfonyl)phenyl)-4-oxo-3,4-dihydroquinazolin-2-yl)ethyl)acetamide] | 48 | > 1000 |
| COc1ccc(-c2ccc3c(=O)n(-c4ccc(S(=O)(=O)N5CCOCC5)cc4)c([C@H](Cc4cc(F)cc(F)c4)NC(=O)Cn4nc(C(F)F)c5c4C(F)(F)[C@@H]4C[C@H]54)nc3c2)cn1 [Example 112, 2-((3bS,4aR)-3-(difluoromethyl)-5,5-difluoro-3b,4,4a,5-tetrahydro-1H-cyclopropa[3,4]cyclopenta[1,2-c]pyrazol-1-yl)-N-((S)-2-(3,5-difluorophenyl)-1-(7-(6-methoxypyridin-3-yl)-3-(4-(morpholinosulfonyl)phenyl)-4-oxo-3,4-dihydroquinazolin-2-yl)ethyl)acetamide] | 4 | > 1000 |
| O=C(Cn1ccc(C2CC2)n1)N[C@@H](Cc1cc(F)cc(F)c1)c1nc2cc(-c3c(Cl)cccc3Cl)ccc2c(=O)n1-c1ccc(S(=O)(=O)N2CCOCC2)cc1 [Example 114, (S)-2-(3-cyclopropyl-1H-pyrazol-1-yl)-N-(1-(7-(2,6-dichlorophenyl)-3-(4-(morpholinosulfonyl)phenyl)-4-oxo-3,4-dihydroquinazolin-2-yl)-2-(3,5-difluorophenyl)ethyl)acetamide] | 15 | > 1000 |
| Cc1cc(C(F)F)nn1CC(=O)N[C@@H](Cc1cc(F)cc(F)c1)c1nc2cc(-c3ccccc3F)ccc2c(=O)n1-c1ccc(Cl)c2c(NS(=O)(=O)C3CC3)nn(CC(F)F)c12 [Example 137, (S)-N-(1-(3-(4-chloro-3-(cyclopropanesulfonamido)-1-(2,2-difluoroethyl)-1H-indazol-7-yl)-7-(2-fluorophenyl)-4-oxo-3,4-dihydroquinazolin-2-yl)-2-(3,5-difluorophenyl)ethyl)-2-(3-(difluoromethyl)-5-methyl-1H-pyrazol-1-yl)acetamide] | 8.4 | > 1000 |
| O=C(Cc1ccn(C2CC2)n1)N[C@@H](Cc1cc(F)cc(F)c1)c1nc2cc(-c3ccccc3F)ccc2c(=O)n1-c1ccc(Cl)c2c(NS(=O)(=O)C3CC3)nn(CC(F)F)c12 [Example 139, (S)-N-(1-(3-(4-chloro-3-(cyclopropanesulfonamido)-1-(2,2-difluoroethyl)-1H-indazol-7-yl)-7-(2-fluorophenyl)-4-oxo-3,4-dihydroquinazolin-2-yl)-2-(3,5-difluorophenyl)ethyl)-2-(1-cyclopropyl-1H-pyrazol-3-yl)acetamide] | 0.57 | > 500 |
| CC(C)n1ccc(CC(=O)N[C@@H](Cc2cc(F)cc(F)c2)c2nc3cc(-c4ccccc4F)ccc3c(=O)n2-c2ccc(Cl)c3c(NS(=O)(=O)C4CC4)nn(CC(F)F)c23)n1 [Example 140, (S)-N-(1-(3-(4-chloro-3-(cyclopropanesulfonamido)-1-(2,2-difluoroethyl)-1H-indazol-7-yl)-7-(2-fluorophenyl)-4-oxo-3,4-dihydroquinazolin-2-yl)-2-(3,5-difluorophenyl)ethyl)-2-(1-isopropyl-1H-pyrazol-3-yl)acetamide] | 0.35 | > 500 |
| Cc1cc(C)nc(-c2ccc3c(=O)n(-c4ccc(Cl)c5c(NS(C)(=O)=O)nn(C)c45)c([C@H](Cc4cc(F)cc(F)c4)NC(=O)Cn4nc(C(F)(F)F)c5c4C(F)(F)[C@@H]4C[C@H]54)nc3c2)n1 [Example 141, N-((S)-1-(3-(4-chloro-1-methyl-3-(methylsulfonamido)-1H-indazol-7-yl)-7-(4,6-dimethylpyrimidin-2-yl)-4-oxo-3,4-dihydroquinazolin-2-yl)-2-(3,5-difluorophenyl)ethyl)-2-((3bS,4aR)-5,5-difluoro-3-(trifluoromethyl)-3b,4,4a,5-tetrahydro-1H-cyclopropa[3,4]cyclopenta[1,2-c]pyrazol-1-yl)acetamide] | 0.11 | > 500 |
| COc1ccccc1-c1ccc2c(=O)n(-c3ccc(S(=O)(=O)N4CCOCC4)cc3)c([C@H](Cc3cc(F)cc(F)c3)NC(=O)Cn3ccc(C4CC4)n3)nc2c1 [Example 142, (S)-2-(3-cyclopropyl-1H-pyrazol-1-yl)-N-(2-(3,5-difluorophenyl)-1-(7-(2-methoxyphenyl)-3-(4-(morpholinosulfonyl)phenyl)-4-oxo-3,4-dihydroquinazolin-2-yl)ethyl)acetamide] | 66 | > 1000 |
